molecular target: T1, human GAL3 receptor (Homo sapiens, UniProt O60755); experiment: Radioligand binding at cloned human GAL3 receptor; settings: indolones, cloned human receptor; read-out: Ki GalR3
T1 construct: expressed in transfected cells
T1 sequence (O60755 1-368): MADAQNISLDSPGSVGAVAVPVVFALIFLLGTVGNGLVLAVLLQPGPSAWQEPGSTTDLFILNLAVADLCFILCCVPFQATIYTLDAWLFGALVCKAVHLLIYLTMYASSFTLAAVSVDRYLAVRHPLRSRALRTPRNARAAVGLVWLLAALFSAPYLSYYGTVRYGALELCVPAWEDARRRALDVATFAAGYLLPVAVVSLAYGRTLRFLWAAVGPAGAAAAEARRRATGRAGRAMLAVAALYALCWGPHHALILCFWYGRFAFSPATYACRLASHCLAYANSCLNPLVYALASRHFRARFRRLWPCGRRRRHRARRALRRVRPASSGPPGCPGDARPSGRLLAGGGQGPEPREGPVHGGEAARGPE
Procedure, shortened: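 Membranes from LM(tk-) cells stably expressing human GAL3, prepared in binding buffer (HEPES-based, pH 7.4), used for radioligand binding. Solvent at final assay concentration: 3% DMSO for indolones, 1% ethanol/0.09% pluronic F-127 for pyrimidines. Binding data analysed by nonlinear regression.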

Row | Ki [nM] | Structure (SMILES)
1 | 34 | O=C1/C(=N\c2ccc(Cl)cc2)c2ccccc2N1c1ccsc1 [Example 261, (3Z)-3-[(4-CHLOROPHENYL)IMINO]-1-(3-THIENYL)-1,3-DIHYDRO-2H-INDOL-2-ONE]
2 | 49 | Cc1noc(C)c1CN1C(=O)/C(=N\c2ccc(Cl)c(Cl)c2)c2ccccc21 [Example 255]
3 | 1180 | O=C1C(=Nc2cccc(C(F)(F)F)c2)c2ccccc2N1Cc1csc2ccc(Cl)cc12 [Example 111, 1-[(5-CHLORO-1-BENZOTHIEN-3-YL)METHYL]-3-{[3-(TRIFLUOROMETHYL)PHENYL]IMINO}-1,3-DIHYDRO-2H-INDOL-2-ONE]
4 | 742 | O=C1/C(=N\c2cccc(C(F)(F)F)c2)c2ccccc2N1C1CCOCC1 [Example 300, (3Z)-1-TETRAHYDRO-2H-PYRAN-4-YL-3-{[3-(TRIFLUOROMETHYL)PHENYL]IMINO}-1,3-DIHYDRO-2H-INDOL-2-ONE]
5 | 84 | O=C1C(=Nc2cccc(C(F)(F)F)c2)c2ccccc2N1Cc1ccc(Cl)s1 (mixture of isomers) [Example 108, 1-[(5-CHLORO-2-THIENYL)METHYL]-3-{[3-(TRIFLUOROMETHYL)PHENYL]IMINO}-1,3-DIHYDRO-2H-INDOL-2-ONE]
6 | 271 | O=C1/C(=N\c2ccc3ncccc3c2)c2ccccc2N1c1ccsc1 [Example 291, (3Z)-3-(6-QUINOLINYLIMINO)-1-(3-THIENYL)-1,3-DIHYDRO-2H-INDOL-2-ONE]
7 | 126 | O=C1/C(=N\c2cccc(C(F)(F)F)c2)c2ccccc2N1c1ccc(O)cc1 [Example 310, (3Z)-1-(4-HYDROXYPHENYL)-3-{[3-(TRIFLUOROMETHYL)PHENYL]IMINO}-1,3-DIHYDRO-2H-INDOL-2-ONE]
8 | 82 | O=C1/C(=N\c2ccc(C3CCCCC3)cc2)c2ccccc2N1c1ccsc1 [Example 296, (3Z)-3-[(4-CYCLOHEXYLPHENYL)IMINO]-1-(3-THIENYL)-1,3-DIHYDRO-2H-INDOL-2-ONE]
9 | 150 | COc1ccc2c(c1)N(c1ccccc1)C(=O)/C2=N\c1cccc(Cl)c1 [Example 302, (3Z)-3-[(3-CHLOROPHENYL)IMINO]-6-METHOXY-1-PHENYL-1,3-DIHYDRO-2H-INDOL-2-ONE]
10 | 60 | O=C1/C(=N\c2ccc3ccccc3c2)c2ccccc2N1c1ccsc1 [Example 260, (3Z)-3-(2-NAPHTHYLIMINO)-1-(3-THIENYL)-1,3-DIHYDRO-2H-INDOL-2-ONE]
11 | 595 | Cc1noc(C)c1CN1C(=O)/C(=N\c2cccc(C(F)(F)F)c2)c2ccccc21 [Example 275]
12 | 242 | CC(C)c1cccc(/N=C2\C(=O)N(c3ccsc3)c3ccccc32)c1 [Example 295, (3Z)-3-[(3-ISOPROPYLPHENYL)IMINO]-1-(3-THIENYL)-1,3-DIHYDRO-2H-INDOL-2-ONE]
13 | 2320 | O=C1C(=Nc2ccc3[nH]ccc3c2)c2ccccc2N1c1ccccc1 (mixture of isomers) [Example 112, 3-(1H-INDOL-5-YLIMINO)-1-PHENYL-1,3-DIHYDRO-2H-INDOL-2-ONE]
14 | 26 | O=C1/C(=N\c2ccc(F)c(F)c2)c2ccccc2N1c1ccccc1 [Example 285, (3Z)-3-[(3,4-DIFLUOROPHENYL)IMINO]-1-PHENYL-1,3-DIHYDRO-2H-INDOL-2-ONE]

same assay, conditions: pyrimidines, cloned human receptor; read-out: Ki GalR3

Row | Structure (SMILES) | Ki [nM]
15 | Cc1cc(C)cc(Nc2cc(N(C)C)nc(N3CCN(c4ccccn4)CC3)n2)c1 [Example 214] | 676
16 | Cc1ccc(Nc2cc(N(C)C)nc(N3CCN(c4ccccn4)CC3)n2)cc1Br [Example 240] | 77
17 | COc1cccc(Nc2cc(N(C)C)nc(N3CCN(Cc4ccccc4OC)CC3)n2)c1 [Example 166] | 263
18 | Cc1ccc(Nc2cc(N(C)C)nc(NCCNc3ccccc3)n2)cc1 [Example 176] | 608
19 | CN(C)c1cc(Nc2cccc3c2CCCC3)nc(N2CCN(c3ccccn3)CC2)n1 [Example 122] | 65
20 | Cc1ccc(Nc2cc(N(C)C)nc(N3CCN(c4ccccn4)CC3)n2)cc1C [Example 190] | 153
21 | CN(C)c1cc(NC23CC4CC(CC(C4)C2)C3)nc(N2CCN(Cc3ccccc3)CC2)n1 [Example 138] | 52
22 | Cc1ccc(Nc2cc(N3CCCCC3)nc(N3CCN(c4c(C(F)(F)F)ccc[n+]4[O-])CC3)n2)cc1 [Example 249] | 386
23 | CN(C)c1cc(Nc2cccc(F)c2)nc(N2CCN(Cc3ccccc3)CC2)n1 [Example 164] | 60
24 | COc1ccc(CCNc2nc(Nc3ccc(C)cc3)cc(N(C)C)n2)cc1 [Example 232] | 155
25 | Cc1ccc(Nc2cc(N(C)C)nc(N3CCN(Cc4ccsc4)CC3)n2)cc1 [Example 238] | 331
26 | CN(C)c1cc(N[C@H]2CC3CC[C@]2(C)C3(C)C)nc(N2CCN(Cc3ccccc3)CC2)n1 [Example 167] | 50
27 | CN(C)c1cc(Nc2ccc(F)c(F)c2)nc(N2CCN(c3ccccn3)CC2)n1 [Example 196] | 443
28 | Cc1ccc(Nc2cc(N(C)C)nc(N3CCN(c4ccccn4)CC3)n2)c(Cl)c1 [Example 223] | 559
29 | Cc1ccc(Nc2cc(N(C)C)nc(N(C)CCc3ccccc3)n2)cc1 [Example 248] | 33
30 | CCCCCCCc1ccc(Nc2cc(N(C)C)nc(N3CCN(c4ccccn4)CC3)n2)cc1 [Example 189] | 26
31 | Cc1ccc(Nc2cc(N3CCCCC3)nc(Nc3ccccc3)n2)cc1 [Example 3] | 163
32 | CN(C)c1cc(Nc2cccc(I)c2)nc(N2CCN(c3ccccn3)CC2)n1 [Example 193] | 244

Row | Structure (SMILES) | Ki [nM]
33 | Cc1ccc(Nc2cc(N3CCCCC3)nc(N(C)CCc3c[nH]c4ccccc34)n2)cc1Cl [Example 16] | 33
34 | Cc1ccc(Nc2cc(N3CCCCC3)nc(N3CCN(Cc4ccccc4)CC3)n2)cc1 [Example 23] | 60
35 | CN(C)c1cc(Nc2cccc(Cl)c2)nc(N2CCN(c3ccccn3)CC2)n1 [Example 224] | 218
36 | C[C@H]1[C@H](Nc2cc(N(C)C)nc(N3CCN(Cc4ccccc4)CC3)n2)C[C@@H]2C[C@@H]1C2(C)C [Example 139] | 47
37 | COc1cccc(Nc2cc(N(C)C)nc(N3CCN(C4CCCCC4)CC3)n2)c1 [Example 163] | 500
38 | CN(C)c1cc(Nc2ccc3c(c2)CCC3)nc(N2CCN(c3cnccn3)CC2)n1 [Example 180] | 151
39 | COc1cccc(Nc2cc(N(C)C)nc(N(C)CCc3ccccc3)n2)c1 [Example 251] | 54
40 | FC(F)(F)c1cccnc1N1CCN(c2nc(NC3CCCCC3)cc(N3CCCCC3)n2)CC1 [Example 35] | 111
41 | CN(C)c1cc(Nc2ccc(Oc3ccccc3)cc2)nc(Nc2ccccc2)n1 [Example 64] | 572
42 | CN(C)c1cc(NC2C3(C)CCC(C3)C2(C)C)nc(N2CCN(Cc3ccccc3)CC2)n1 (stereo not shown) [Example 130] | 100
43 | COc1cccc(Nc2cc(N(C)C)nc(N3CCN(CC4CCCO4)CC3)n2)c1 (stereo not shown) [Example 233] | 869
44 | CN(C)c1cc(Nc2ccc3ccccc3c2)nc(Nc2ccccc2)n1 [Example 65] | 329
45 | Cc1ccc(Nc2cc(N(C)C)nc(NCCc3ccccc3)n2)cc1 [Example 250] | 119
46 | COc1ccc(C(F)(F)F)cc1Nc1cc(N(C)C)nc(N2CCN(Cc3ccccc3)CC2)n1 [Example 226] | 72
47 | CN(C)c1cc(Nc2ccc(C#N)c(Cl)c2)nc(N2CCN(Cc3ccccc3)CC2)n1 [Example 129] | 405
48 | CN(C)c1cc(Nc2ccc(F)cc2)nc(N2CCN(Cc3ccccc3)CC2)n1 [Example 156] | 61
49 | CN(C)c1cc(NC2CCCCCCC2)nc(N2CCN(Cc3ccccc3)CC2)n1 [Example 170] | 91
